{"source": "paper PMC3183106", "about": "(Pharmacological research : the official journal of the …, 2011)", "key": {"[1]": {"conditions": "mean ± SEM"}, "[2]": {"conditions": "mean ± SEM", "remark": "listed apart in the source"}, "[3]": {"conditions": "cited from earlier work"}, "[4]": {"conditions": "cited from earlier work", "remark": "listed apart in the source"}, "[5]": {"conditions": "human, in vivo"}}, "note": "Like-named read-outs stand apart in the source and are kept apart here."}
{"compound": "CSCCCCNC(=S)SC[C@H](N)C(=O)NCC(=O)O", "note": "[ERN-CG, ERN-cysteinylglycine]", "values": [{"measurement": "Percent of metabolite relative to total metabolites for respective ITC in urine", "setting": "[1]; first 12 hrs after broccoli sprouts, GSTP1 A/A (n=7)", "result": "0.11 ± 0.01", "unit": "%"}, {"measurement": "Percent of metabolite relative to total metabolites for respective ITC in urine", "setting": "[1]; first 12 hrs after broccoli sprouts, GSTP1 A/G (n=5)", "result": "0.12 ± 0.04", "unit": "%"}, {"measurement": "Percent of metabolite relative to total metabolites for respective ITC in urine", "setting": "[1]; first 12 hrs after broccoli supplement, GSTP1 A/A (n=7)", "result": "0.89 ± 0.31", "unit": "%"}, {"measurement": "Percent of metabolite relative to total metabolites for respective ITC in urine", "setting": "[1]; first 12 hrs after broccoli supplement, GSTP1 A/G (n=5)", "result": "2.00 ± 0.77", "unit": "%"}, {"measurement": "Percent of metabolite relative to total for respective ITC in the plasma", "setting": "[2]; 12 hrs after broccoli sprouts, GSTP1 A/A (n=7)", "result": "69.4 ± 1.38", "unit": "%"}, {"measurement": "Percent of metabolite relative to total for respective ITC in the plasma", "setting": "[2]; 12 hrs after broccoli sprouts, GSTP1 A/G (n=5)", "result": "67.6 ± 1.19", "unit": "%"}, {"measurement": "Percent of metabolite relative to total for respective ITC in the plasma", "setting": "[2]; 12 hrs after broccoli supplement, GSTP1 A/A (n=7)", "result": "72.9 ± 1.78", "unit": "%"}, {"measurement": "Percent of metabolite relative to total for respective ITC in the plasma", "setting": "[2]; 12 hrs after broccoli supplement, GSTP1 A/G (n=5)", "result": "75.1 ± 1.44", "unit": "%"}]}
{"compound": "CC(C)=CCC/C(C)=C/C=C/C(C)=C/C=C/C(C)=C/C=C/C=C(C)/C=C/C=C(C)/C=C/C=C(\\C)CCC=C(C)C", "note": "[Lycopene]", "values": [{"measurement": "Increase in serum concentrations", "setting": "[3]; heat processed tomato juice", "result": "2–3 fold"}, {"measurement": "Change in serum concentrations", "setting": "[3]; unprocessed tomato juice", "result": "no change"}]}
{"compound": "C[S+]([O-])CCCCN=C=S", "note": "(stereo not shown) [SFN, sulforaphane]", "values": [{"measurement": "SFN recovered after consumption", "setting": "[4]; broccoli powder", "result": 19, "unit": "%"}, {"measurement": "SFN recovered after consumption", "setting": "[4]; broccoli sprouts", "result": 74, "unit": "%"}, {"measurement": "Time by which total metabolites almost completely cleared from the plasma", "setting": "[5]", "result": "≤ 24", "unit": "h"}]}
